Results taken from patent US9913843B2, “Protein kinase C inhibitors and uses thereof” (Rigel Pharmaceuticals, Inc., priority 2012, dated 2018).
Read-outs that look alike come from different tables or passages of the source.

System: PKC mediated IL-2 production in human primary T cells
Assay: IL-2 ELISA, human primary T cell, anti CD3+CD28+ (whole cell functional assay for PKC mediated IL-2 production)
Assay type: cell-based
Method: Human primary T cells were prepared as follows. Fresh PBMC's from All Cells (Cat # PB002) were re-suspended in RPMI (RPMI-1640 with L-Glutamine; Mediatech, Inc., Herndon Va., cat. #10-040-CM) with 10% FBS and seeded into flasks and incubated at 37° C. for 2 hours to allow the monocytes to adhere. The non-adherent cells were then centrifuged and re-suspended in RPMI medium containing 40 U/ml IL2 and seeded into a flask pre-coated with 1 μg/ml aCD3 and 5 ug/ml aCD28 (Anti-Human CD3, BD Pharmingen Catalog #555336, Anti-Human CD28, Beckman Coulter Catalog #IM1376). The cells were stimulated for 3-4 days, then transferred to a fresh flask and maintained in RPMI (RPMI-1640 with L-Glutamine; Mediatech, Inc., Herndon Va., cat. #10-040-CM) with 10% FBS and 40 U/ml IL-2.
Human primary T cells (100,000 cells per well) were pre-incubated with or without test compound in RPMI-1640 with L-Glutamine and 10% FBS for 1 hour at 37° C. Cells were then stimulated by transferring them to round-bottom 96-well plates pre-coated with 1 μg/ml aCD3 and 5 μg/ml aCD28. For counter assay, cells were instead stimulated by adding 8× stock solutions of PMA and ionomycin in RPMI-1640 with L-Glutamine and 10% FBS (for final concentrations of 0.5 ng/ml PMA and 0.1 μM ionomycin, both from Calbiochem). Cells were incubated at 37° C. for 24 hours before 100 μL supernatants were harvested for quantification of IL-2 by ELISA using Human IL-2 Duoset ELISA Kit from R and D Systems, Cat. # DY202E.
Compounds 1-156 were tested in a whole cell functional assay for PKC mediated IL-2 production as follows. Human primary T cell isolation and culture: Human primary T cells were prepared as follows. Whole blood was obtained from a healthy volunteer, mixed 1:1 with PBS, layered on to Ficoll Hypaque (Amersham Pharmacia Biotech, Piscataway, N.J., Catalog #17-1440-03) in 2:1 blood/PBS:ficoll ratio and centrifuged for 30 minutes at 4° C. at 1750 rpm. The cells at the serum: ficoll interface were recovered and washed twice with 5 volumes of PBS. These freshly isolated human peripheral blood mononuclear cells were cultured in Yssel's medium containing 40 U/ml IL2 in a flask pre-coated with 1 μg/ml aCD3 and 5 μg/ml aCD28 (Anti-Human CD3, BD Pharmingen Catalog #555336, Anti-Human CD28, Beckman Coulter Catalog #IM1376). The cells were stimulated for 3-4 days, then transferred to a fresh flask and maintained in RPMI (RPMI-1640 with L-Glutamine; Mediatech, Inc., Herndon Va., cat. #10-040-CM) with 10% FBS and 40 U/ml IL-2. The primary T-cells were then washed twice with PBS to remove the IL-2.
Primary T cell stimulation and IL2 ELISA: Human primary T cells (100,000 cells per well) were pre-incubated with or without test compound in Yssel's medium for 1 hour at 37° C. Cells were then stimulated by transferring them to round-bottom 96-well plates pre-coated with 1 μg/ml aCD3 and 5 μg/ml αCD28. For counter assay, cells were instead stimulated by adding 8× stock solutions of PMA and ionomycin in Yssels (for final concentrations of 0.5 ng/ml PMA and 0.1 uM ionomycin, both from Calbiochem). Cells were incubated at 37° C. for 24 hours before 100 μL supernatants were harvested for quantification of IL-2 by ELISA using Human IL-2 Duoset ELISA Kit from R and D Systems, Cat. # DY202E.

[1] = 24 h, human primary T cells stimulated with anti-CD3 + anti-CD28, IL-2 by ELISA, read-out: IC50 for blocking IL-2 production
[2] = human primary T cells stimulated with anti-CD3 + anti-CD28, 24 h, IL-2 by ELISA, 8 pt, read-out: IL2 ELISA, Human primary T cell, anti-CD3 + CD28, 8 pt (IC50)

Row | Compound | IC50 [1] | IC50 [2]
1 | N#Cc1cc(Nc2ncc(F)c(NC[C@@H]3CCCN4CCCC[C@H]34)n2)ccc1C1CC1 [Compound 1, 5-(4-(((1S,9aR)-octahydro-1H-quinolizin-1-yl)methylamino)-5-fluoropyrimidin-2-ylamino)-2-cyclopropylbenzonitrile] | < 30000 nM | 107 nM
2 | Fc1cc(C2CC2)c(-n2cnnn2)cc1Nc1ncc(F)c(NC[C@@H]2CCCN3CCCC[C@H]23)n1 [Compound 2, N2-(4-cyclopropyl-2-fluoro-5-(1H-tetrazol-1-yl)phenyl)-5-fluoro-N4-(((1S,9aR)-octahydro-1H-quinolizin-1-yl)methyl)pyrimidine-2,4-diamine] | < 30000 nM | 372 nM
3 | Cn1nnn(-c2cc(Nc3ncc(F)c(NC[C@@H]4CCCN5CCCC[C@H]45)n3)c(F)cc2C2CC2)c1=O [Compound 3, 1-(5-(4-(((1S,9aR)-octahydro-1H-quinolizin-1-yl)methylamino)-5-fluoropyrimidin-2-ylamino)-2-cyclopropyl-4-fluorophenyl)-4-methyl-1H-tetrazol-5(4H)-one] | < 30000 nM | 1680 nM
4 | Cc1ccc(Nc2ncc(F)c(NC[C@@H]3CCCN4CCCC[C@H]34)n2)cc1-n1cnnn1 [Compound 4, 5-fluoro-N4-(((1S,9aR)-octahydro-1H-quinolizin-1-yl)methyl)-N2-(4-methyl-3-(1H-tetrazol-1-yl)phenyl)pyrimidine-2,4-diamine] | < 30000 nM | 142 nM
5 | N#Cc1cc(Nc2ncc(Cl)c(NCC3CCCN4CCCCC34)n2)ccc1C1CC1 [Compound 5, 5-(4-(((1S,9aR)-octahydro-1H-quinolizin-9-yl)methylamino)-5-chloropyrimidin-2-ylamino)-2-cyclopropylbenzonitrile] | < 30000 nM | 120 nM
6 | COc1ccc(Nc2ncc(F)c(NC[C@@H]3CCCN4CCCC[C@H]34)n2)cc1-n1nnnc1C [Compound 6, 5-fluoro-N4-(((1S,9aR)-octahydro-1H-quinolizin-1-yl)methyl)-N2-(4-methoxy-3-(5-methyl-1H-tetrazol-1-yl)phenyl)pyrimidine-2,4-diamine] | < 30000 nM | 88.9 nM
7 | Cc1nnnn1-c1ccc(F)c(Nc2ncc(F)c(NC[C@@H]3CCCN4CCCC[C@H]34)n2)c1 [Compound 7, 5-fluoro-N2-(2-fluoro-5-(5-methyl-1H-tetrazol-1-yl)phenyl)-N4-(((1S,9aR)-octahydro-1H-quinolizin-1-yl)methyl)pyrimidine-2,4-diamine] | < 30000 nM | 428 nM
8 | Cc1nnnn1-c1cc(Nc2ncc(F)c(NC[C@@H]3CCCN4CCCC[C@H]34)n2)ccc1F [Compound 8, 5-fluoro-N2-(4-fluoro-3-(5-methyl-1H-tetrazol-1-yl)phenyl)-N4-(((1S,9aR)-octahydro-1H-quinolizin-1-yl)methyl)pyrimidine-2,4-diamine] | < 30000 nM | 106 nM
9 | Cc1ccc(Nc2ncc(F)c(NC[C@@H]3CCCN4CCCC[C@H]34)n2)cc1C#N [Compound 9, 5-(4-(((1S,9aR)-octahydro-1H-quinolizin-1-yl)methylamino)-5-fluoropyrimidin-2-ylamino)-2-methylbenzonitrile] | < 30000 nM | 195 nM
10 | N#Cc1cccc(Nc2ncc(F)c(NC[C@@H]3CCCN4CCCC[C@H]34)n2)c1 [Compound 10, 3-(4-(((1S,9aR)-octahydro-1H-quinolizin-1-yl)methylamino)-5-fluoropyrimidin-2-ylamino)benzonitrile] | < 30000 nM | 594 nM
11 | COc1cc(Nc2ncc(F)c(NC[C@@H]3CCCN4CCCC[C@H]34)n2)cc(OC)c1 [Compound 11, 5-fluoro-N4-(((1S,9aR)-octahydro-1H-quinolizin-1-yl)methyl)-N2-(3,5-dimethoxyphenyl)pyrimidine-2,4-diamine] | < 30000 nM | 1080 nM
12 | N#Cc1cc(Nc2ncc(F)c(NC[C@@H]3CCCN4CCCC[C@H]34)n2)c(F)cc1C1CC1 [Compound 12, 5-(4-(((1S,9aR)-octahydro-1H-quinolizin-1-yl)methylamino)-5-fluoropyrimidin-2-ylamino)-2-cyclopropyl-4-fluorobenzonitrile] | < 30000 nM | 889 nM
13 | Fc1cnc(Nc2ccccc2)nc1NC[C@@H]1CCCN2CCCC[C@H]12 [Compound 13, 5-fluoro-N4-(((1S,9aR)-octahydro-1H-quinolizin-1-yl)methyl)-N2-phenylpyrimidine-2,4-diamine] | < 30000 nM | 4480 nM
14 | Cn1nnn(-c2cc(Nc3ncc(F)c(NC[C@@H]4CCCN5CCCC[C@H]45)n3)ccc2OC2COC2)c1=O [Compound 14, 1-(5-(4-(((1S,9aR)-octahydro-1H-quinolizin-1-yl)methylamino)-5-fluoropyrimidin-2-ylamino)-2-(oxetan-3-yloxy)phenyl)-4-methyl-1H-tetrazol-5(4H)-one] | < 30000 nM | 201 nM
15 | Cc1cc(C2CC2)c(-n2nnn(C)c2=O)cc1Nc1ncc(F)c(NC[C@@H]2CCCN3CCCC[C@H]23)n1 [Compound 15, 1-(5-(4-(((1S,9aR)-octahydro-1H-quinolizin-1-yl)methylamino)-5-fluoropyrimidin-2-ylamino)-2-cyclopropyl-4-methylphenyl)-4-methyl-1H-tetrazol-5(4H)-one] | < 30000 nM | 10600 nM
16 | CC(C)N1C(=O)C(C)(C)Oc2cc(Nc3ncc(F)c(NC[C@@H]4CCCN5CCCC[C@H]45)n3)ccc21 [Compound 16, 7-(4-(((1S,9aR)-octahydro-1H-quinolizin-1-yl)methylamino)-5-fluoropyrimidin-2-ylamino)-4-isopropyl-2,2-dimethyl-2H-benzo[b][1,4]oxazin-3(4H)-one] | < 30000 nM | 702 nM
17 | COc1cc(Nc2ncc(F)c(NC[C@@H]3CCCN4CCCC[C@H]34)n2)cc(-n2nnn(C)c2=O)c1 [Compound 17, 1-(3-(4-(((1S,9aR)-octahydro-1H-quinolizin-1-yl)methylamino)-5-fluoropyrimidin-2-ylamino)-5-methoxyphenyl)-4-methyl-1H-tetrazol-5(4H)-one] | < 30000 nM | 405 nM
18 | CC1(C)Oc2cc(Nc3ncc(F)c(NC[C@@H]4CCCN5CCCC[C@H]45)n3)ccc2N(CC2CC2)C1=O [Compound 18, 7-(4-(((1S,9aR)-octahydro-1H-quinolizin-1-yl)methylamino)-5-fluoropyrimidin-2-ylamino)-4-(cyclopropylmethyl)-2,2-dimethyl-2H-benzo[b][1,4]oxazin-3(4H)-one] | < 30000 nM | 126 nM
19 | Fc1cnc(Nc2ccc(N3CCOCC3)c(C(F)(F)F)c2)nc1NC[C@@H]1CCCN2CCCC[C@H]12 [Compound 19, 5-fluoro-N2-(3-(trifluoromethyl)-4-morpholinophenyl)-N4-(((1S,9aR)-octahydro-1H-quinolizin-1-yl)methyl)pyrimidine-2,4-diamine] | < 30000 nM | 554 nM
20 | Fc1cnc(Nc2ccc3c(c2)OC(F)(F)C(F)(F)O3)nc1NC[C@@H]1CCCN2CCCC[C@H]12 [Compound 20, 5-fluoro-N2-(2,2,3,3-tetrafluoro-2,3-dihydrobenzo[b][1,4]dioxin-7-yl)-N4-(((1S,9aR)-octahydro-1H-quinolizin-1-yl)methyl)pyrimidine-2,4-diamine] | < 30000 nM | 1080 nM
21 | COc1cc(F)cc(Nc2ncc(F)c(NC[C@@H]3CCCN4CCCC[C@H]34)n2)c1 [Compound 21, 5-fluoro-N2-(3-fluoro-5-methoxyphenyl)-N4-(((1S,9aR)-octahydro-1H-quinolizin-1-yl)methyl)pyrimidine-2,4-diamine] | < 30000 nM | 702 nM
